Like-named read-outs stand apart in the source and are kept apart here.
Key:
EGFR wild type = molecular target: T1, EGFR wild type (Homo sapiens, UniProt P00533); test: Inhibition of EGFR wild type biochemical enzymatic activity (HTRF); details: EGFR wild type, 1 mM ATP, 1 h at room temperature
T1 construct: purchased Carna Bio
Procedure, shortened: (§1)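 Read-out is the HTRF 665/615 nm ratio (excitation 320 nm), taken as proportional to kinase activity after a 1 h room-temperature reaction with 1 mM ATP and 1 μM biotinylated TK substrate. IC50 values derive from four-parameter logistic fitting.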

EGFR L858R = molecular target: T2, EGFR L858R (Homo sapiens, UniProt P00533, L858R); test: Inhibition of EGFR L858R biochemical enzymatic activity (HTRF); details: 1 mM ATP, 1 h at room temperature
T2 construct: purchased Carna Bio
T2 sequence (P00533 25-1210 L858R): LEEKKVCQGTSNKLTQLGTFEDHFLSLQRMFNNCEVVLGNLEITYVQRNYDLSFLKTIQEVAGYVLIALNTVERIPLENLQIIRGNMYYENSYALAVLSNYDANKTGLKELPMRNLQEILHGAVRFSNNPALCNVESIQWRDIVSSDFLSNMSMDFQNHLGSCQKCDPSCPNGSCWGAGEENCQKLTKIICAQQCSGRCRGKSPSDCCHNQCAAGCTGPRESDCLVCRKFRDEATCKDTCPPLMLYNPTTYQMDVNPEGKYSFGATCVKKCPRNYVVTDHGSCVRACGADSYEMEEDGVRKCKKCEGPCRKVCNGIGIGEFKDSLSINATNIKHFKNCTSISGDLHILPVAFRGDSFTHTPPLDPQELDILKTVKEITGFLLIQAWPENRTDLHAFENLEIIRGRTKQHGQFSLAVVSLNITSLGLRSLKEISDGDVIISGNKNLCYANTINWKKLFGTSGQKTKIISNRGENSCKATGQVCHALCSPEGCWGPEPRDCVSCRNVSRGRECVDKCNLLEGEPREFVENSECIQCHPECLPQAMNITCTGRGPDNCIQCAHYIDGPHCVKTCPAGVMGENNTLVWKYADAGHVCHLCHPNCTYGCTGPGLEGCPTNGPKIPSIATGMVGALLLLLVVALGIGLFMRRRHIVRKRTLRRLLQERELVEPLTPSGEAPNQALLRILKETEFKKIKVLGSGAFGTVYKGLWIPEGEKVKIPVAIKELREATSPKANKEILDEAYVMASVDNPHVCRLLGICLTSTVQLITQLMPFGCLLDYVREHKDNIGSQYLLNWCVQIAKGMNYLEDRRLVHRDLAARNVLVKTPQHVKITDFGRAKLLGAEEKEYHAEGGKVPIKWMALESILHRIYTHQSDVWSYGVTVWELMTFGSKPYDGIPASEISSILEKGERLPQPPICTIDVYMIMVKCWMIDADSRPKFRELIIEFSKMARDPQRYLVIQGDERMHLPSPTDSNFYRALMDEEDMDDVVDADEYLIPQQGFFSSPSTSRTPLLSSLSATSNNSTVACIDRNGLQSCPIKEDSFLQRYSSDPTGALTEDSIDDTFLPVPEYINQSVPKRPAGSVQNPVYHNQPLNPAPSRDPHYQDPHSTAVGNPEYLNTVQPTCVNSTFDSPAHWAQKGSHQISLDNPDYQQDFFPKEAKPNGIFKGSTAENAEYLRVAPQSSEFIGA
Procedure, shortened: as §1

EGFR L858R/T790M = molecular target: T3, EGFR L858R/T790M (Homo sapiens, UniProt P00533, L858R/T790M); test: Inhibition of EGFR L858R/T790M biochemical enzymatic activity (HTRF); details: EGFR L858R/T790M, 1 mM ATP, 1 h at room temperature
T3 construct: purchased Carna Bio
T3 sequence (P00533 25-1210 T790M/L858R): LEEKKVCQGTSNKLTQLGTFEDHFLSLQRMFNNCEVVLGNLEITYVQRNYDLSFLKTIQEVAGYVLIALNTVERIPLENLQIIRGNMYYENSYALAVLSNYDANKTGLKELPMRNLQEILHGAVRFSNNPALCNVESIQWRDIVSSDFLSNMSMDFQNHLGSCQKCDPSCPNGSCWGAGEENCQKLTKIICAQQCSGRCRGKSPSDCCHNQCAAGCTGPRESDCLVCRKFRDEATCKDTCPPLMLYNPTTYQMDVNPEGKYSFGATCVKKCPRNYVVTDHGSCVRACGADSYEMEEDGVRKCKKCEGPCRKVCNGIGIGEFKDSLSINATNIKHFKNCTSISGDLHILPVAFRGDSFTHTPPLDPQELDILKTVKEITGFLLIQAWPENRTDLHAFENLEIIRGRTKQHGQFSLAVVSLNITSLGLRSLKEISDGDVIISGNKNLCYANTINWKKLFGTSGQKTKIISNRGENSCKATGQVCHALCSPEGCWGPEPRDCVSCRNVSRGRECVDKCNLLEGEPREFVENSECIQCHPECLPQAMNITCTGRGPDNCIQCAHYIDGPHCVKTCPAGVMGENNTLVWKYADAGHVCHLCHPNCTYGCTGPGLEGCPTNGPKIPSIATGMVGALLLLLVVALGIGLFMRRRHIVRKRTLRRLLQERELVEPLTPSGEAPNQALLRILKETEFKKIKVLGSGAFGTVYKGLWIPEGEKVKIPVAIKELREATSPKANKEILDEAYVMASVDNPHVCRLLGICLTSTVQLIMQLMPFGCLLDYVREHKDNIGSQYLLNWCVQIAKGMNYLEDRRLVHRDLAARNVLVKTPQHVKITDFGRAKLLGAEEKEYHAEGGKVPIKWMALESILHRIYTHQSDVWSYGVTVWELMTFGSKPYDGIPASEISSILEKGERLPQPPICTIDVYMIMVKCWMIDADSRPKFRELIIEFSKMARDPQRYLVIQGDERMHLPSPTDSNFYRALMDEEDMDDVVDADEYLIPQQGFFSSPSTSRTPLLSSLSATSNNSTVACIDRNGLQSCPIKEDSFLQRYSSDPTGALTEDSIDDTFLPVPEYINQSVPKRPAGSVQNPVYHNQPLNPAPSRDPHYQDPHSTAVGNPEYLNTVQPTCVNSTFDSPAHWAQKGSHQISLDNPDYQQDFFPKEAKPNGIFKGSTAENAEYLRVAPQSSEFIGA
Procedure, shortened: as §1

EGFR Exon19Del = molecular target: T4, EGFR Exon19Del (Homo sapiens, UniProt P00533, DEL746-750); test: Inhibition of EGFR Exon19Del biochemical enzymatic activity (HTRF); details: 1 mM ATP, 1 h at room temperature
T4 construct: purchased Carna Bio
Procedure, shortened: as §1

EGFR Exon19Del/T790M = molecular target: T5, EGFR Exon19Del/T790M (Homo sapiens, UniProt P00533, DEL746-750/T790M); test: Inhibition of EGFR Exon19Del/T790M biochemical enzymatic activity (HTRF); details: EGFR Exon19Del/T790M, 1 mM ATP, 1 h at room temperature
T5 construct: purchased Carna Bio
Procedure, shortened: as §1

EGFR[T790M/C797S/L858R] = molecular target: T6, EGFR[T790M/C797S/L858R] (Homo sapiens, UniProt P00533, C797S/L858R/T790M); test: Inhibition of EGFR[T790M/C797S/L858R] biochemical enzymatic activity (HTRF); details: EGFR[T790M/C797S/L858R], 1 mM ATP, 1 h at room temperature
T6 construct: purchased Carna Bio
Procedure, shortened: as §1

[1] = molecular target: T7, EGFR[T790M/C797S/d746-750] (Homo sapiens, UniProt P00533, C797S/DEL746-750/T790M); test: Inhibition of EGFR[T790M/C797S/d746-750] biochemical enzymatic activity (HTRF); details: 1 mM ATP, 1 h at room temperature
T7 construct: purchased Carna Bio
Procedure, shortened: as §1

EGFR (d746-750 C797S) = molecular target: T8, EGFR (d746-750 C797S) (Homo sapiens, UniProt P00533, C797S/DEL746-750); test: Inhibition of EGFR (d746-750 C797S) biochemical enzymatic activity (HTRF); details: EGFR (d746-750 C797S), 1 mM ATP, 1 h at room temperature
T8 construct: purchased signalchem
Procedure, shortened: as §1

EGFR (C797S L858R) = molecular target: T9, EGFR (C797S L858R) (Homo sapiens, UniProt P00533, C797S/L858R); test: Inhibition of EGFR (C797S L858R) biochemical enzymatic activity (HTRF); details: EGFR (C797S L858R), 1 mM ATP, 1 h at room temperature
T9 construct: purchased signalchem
T9 sequence (P00533 25-1210 C797S/L858R): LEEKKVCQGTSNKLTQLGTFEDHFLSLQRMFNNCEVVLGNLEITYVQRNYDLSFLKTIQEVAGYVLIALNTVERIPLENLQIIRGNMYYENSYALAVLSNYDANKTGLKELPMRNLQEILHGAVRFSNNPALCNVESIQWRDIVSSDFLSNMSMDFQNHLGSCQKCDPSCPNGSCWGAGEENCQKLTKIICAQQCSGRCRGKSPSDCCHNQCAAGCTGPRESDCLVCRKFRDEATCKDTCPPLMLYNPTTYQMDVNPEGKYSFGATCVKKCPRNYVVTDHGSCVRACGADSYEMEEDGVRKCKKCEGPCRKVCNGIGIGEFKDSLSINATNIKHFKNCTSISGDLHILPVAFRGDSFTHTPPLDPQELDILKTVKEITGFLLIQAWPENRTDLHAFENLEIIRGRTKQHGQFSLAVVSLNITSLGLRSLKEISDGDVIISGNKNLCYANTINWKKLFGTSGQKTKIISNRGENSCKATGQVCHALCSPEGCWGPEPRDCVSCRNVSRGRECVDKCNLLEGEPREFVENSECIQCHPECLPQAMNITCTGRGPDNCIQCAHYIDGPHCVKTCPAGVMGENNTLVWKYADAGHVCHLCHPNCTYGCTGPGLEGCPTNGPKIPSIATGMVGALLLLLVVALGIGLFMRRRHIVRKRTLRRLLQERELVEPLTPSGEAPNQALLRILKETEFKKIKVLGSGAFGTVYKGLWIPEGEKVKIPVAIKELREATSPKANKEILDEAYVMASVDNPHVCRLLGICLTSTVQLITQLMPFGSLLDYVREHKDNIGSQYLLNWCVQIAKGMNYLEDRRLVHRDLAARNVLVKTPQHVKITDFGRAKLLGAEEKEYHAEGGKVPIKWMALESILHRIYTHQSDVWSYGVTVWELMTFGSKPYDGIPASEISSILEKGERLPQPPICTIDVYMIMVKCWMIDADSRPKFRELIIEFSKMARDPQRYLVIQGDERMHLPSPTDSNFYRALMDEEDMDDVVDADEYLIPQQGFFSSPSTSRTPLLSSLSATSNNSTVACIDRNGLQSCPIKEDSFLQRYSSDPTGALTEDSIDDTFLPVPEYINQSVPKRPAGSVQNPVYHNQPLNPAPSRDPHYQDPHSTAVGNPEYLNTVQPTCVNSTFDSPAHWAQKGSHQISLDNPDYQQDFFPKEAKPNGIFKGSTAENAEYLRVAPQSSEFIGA
Procedure, shortened: as §1

[2] = test system: Ba/F3 cells expressing EGFR mutations; test: Cell proliferation assay, Ba/F3 cells expressing EGFR mutations (CellTiter-Glo, 72 hours); assay type: cell-based
Procedure, shortened: (§2)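 Ba/F3 cells carrying EGFR mutants (5000/well) or PC-9 cells (500/well) in RPMI1640 were dosed with compound series after overnight attachment and grown 72 h. Viability read by CellTiter-Glo, with day-0 counts subtracted; GI50 from curve fits of % proliferation versus DMSO control.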

PC-9 = test: Cell proliferation assay, PC-9 cells (CellTiter-Glo, 72 hours); assay type: cell-based; details: PC9 cells, read-out: GI50 PC9
Procedure, shortened: as §2

[3] = EGFR Exon19Del, read-out: IC50 @Del19
[4] = read-out: IC50 @T790M- C797S - L858R
[5] = EGFR[T790M/C797S/d746-750], read-out: IC50 @T790M - C797S - Del19
[6] = BaF3 cells, EGFR DEL19 - C797S, read-out: GI50 DEL19 - C797S/BaF3
[7] = BaF3 cells, EGFR DEL19 - T790-C797S, read-out: GI50 DEL19 - T790-C797S/BaF3
[8] = BaF3 cells, EGFR L858R - C797S, read-out: GI50 L858R - C797S/BaF3
[9] = BaF3 cells, EGFR L858R - T790-C797S, read-out: GI50 L858R - T790-C797S/BaF3
[10] = BaF3 cells, EGFR L858R - T790M, read-out: GI50 L858R - T790M/BaF3
[11] = BaF3 cells, EGFR L858R, read-out: GI50 L858R/BaF3
[12] = EGFR DEL19 - T790M, read-out: GI50 DEL19 - T790M

T1 sequence (P00533 25-1210): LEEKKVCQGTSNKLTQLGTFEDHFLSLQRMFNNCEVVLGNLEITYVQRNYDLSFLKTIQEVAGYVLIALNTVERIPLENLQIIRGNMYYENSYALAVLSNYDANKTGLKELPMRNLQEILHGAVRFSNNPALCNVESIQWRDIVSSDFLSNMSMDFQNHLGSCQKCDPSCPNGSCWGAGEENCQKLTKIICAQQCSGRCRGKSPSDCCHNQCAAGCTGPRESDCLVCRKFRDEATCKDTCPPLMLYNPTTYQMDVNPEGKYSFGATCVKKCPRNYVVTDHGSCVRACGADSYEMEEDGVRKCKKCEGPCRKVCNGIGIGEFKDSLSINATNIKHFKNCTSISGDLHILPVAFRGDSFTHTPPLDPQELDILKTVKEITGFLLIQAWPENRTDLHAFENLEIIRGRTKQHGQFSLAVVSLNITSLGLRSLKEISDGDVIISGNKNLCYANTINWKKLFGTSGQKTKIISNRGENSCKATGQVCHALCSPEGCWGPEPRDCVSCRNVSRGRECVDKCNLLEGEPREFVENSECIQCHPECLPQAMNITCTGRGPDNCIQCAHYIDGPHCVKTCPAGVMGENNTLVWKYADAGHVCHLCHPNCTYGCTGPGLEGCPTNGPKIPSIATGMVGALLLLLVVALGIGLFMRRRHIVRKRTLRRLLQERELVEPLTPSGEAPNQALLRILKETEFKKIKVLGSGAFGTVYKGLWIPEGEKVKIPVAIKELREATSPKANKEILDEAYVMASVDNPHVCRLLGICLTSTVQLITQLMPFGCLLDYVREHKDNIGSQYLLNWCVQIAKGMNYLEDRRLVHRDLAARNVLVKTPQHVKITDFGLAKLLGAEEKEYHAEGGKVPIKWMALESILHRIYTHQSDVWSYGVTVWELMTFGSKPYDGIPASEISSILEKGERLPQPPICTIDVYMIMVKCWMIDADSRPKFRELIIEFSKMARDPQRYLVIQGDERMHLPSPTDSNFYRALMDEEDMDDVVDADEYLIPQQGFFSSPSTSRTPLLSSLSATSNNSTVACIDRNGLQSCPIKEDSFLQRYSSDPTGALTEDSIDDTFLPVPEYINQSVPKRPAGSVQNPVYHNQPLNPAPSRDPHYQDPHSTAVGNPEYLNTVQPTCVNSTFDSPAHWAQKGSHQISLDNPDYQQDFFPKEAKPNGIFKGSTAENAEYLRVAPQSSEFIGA

SMILES	IC50 (EGFR wild type; read-out: IC50 @WT) [nM]	IC50 (EGFR L858R; read-out: IC50 @L858R) [nM]	IC50 (EGFR L858R/T790M; read-out: IC50 @L858R-T790M) [nM]	IC50 (EGFR Exon19Del; [3]) [nM]	IC50 (EGFR Exon19Del/T790M; read-out: IC50 @Del19-T790M) [nM]	IC50 (EGFR[T790M/C797S/L858R]; [4]) [nM]	IC50 [1, 5] [nM]	IC50 (EGFR (d746-750 C797S); read-out: IC50 @Del19-C797S) [nM]	IC50 (EGFR (C797S L858R); read-out: IC50 @L858-C797S) [nM]	GI50 [2, 6] [nM]	GI50 [2, 7] [nM]	GI50 [2, 8] [nM]	GI50 [2, 9] [nM]	GI50 [2, 10] [nM]	GI50 [2, 11] [nM]	GI50 [2, 12] [nM]	GI50 (PC-9) [nM]	other results
Cc1cc2cc(n1)-c1cnn(C)c1OCCN1CC3CCC(C3)(C1)n1c(nc3ccc(N4CCN(C)CC4)cc31)NC2=O (single isomer, unassigned) [Example B9A, 15,21-Dimethyl-5-(4-methylpiperazin-1-yl)-23-oxa-2,9,11,16,20,21,26-heptaazaheptacyclo[24.4.1.1^{1,28}.1^{13,17}.0^{2,10}.0^{3,8}.0^{18,22}]tritriaconta-3,5,7,9,13,15,17(33),18(22),19-nonaen-12-one]	> 5000	> 5000	> 5000	432	1070	> 5000	245	454	> 5000									GI50 ([2]; Mus musculus, BaF3, 72 h, BaF3 cells, EGFR DEL19 - C797S, read-out: GI50 DEL19 - C797S/BaF3): 83 nM; GI50 ([2]; Mus musculus, BaF3, 72 h, BaF3 cells, EGFR DEL19 - T790-C797S, read-out: GI50 DEL19 - T790-C797S/BaF3): 107 nM; GI50 ([2]; Mus musculus, BaF3, 72 h, BaF3 cells, EGFR L858R - C797S, read-out: GI50 L858R - C797S/BaF3): 386 nM; GI50 ([2]; Mus musculus, BaF3, 72 h, BaF3 cells, EGFR L858R - T790-C797S, read-out: GI50 L858R - T790-C797S/BaF3): 46 nM; GI50 ([2]; Mus musculus, BaF3, 72 h, BaF3 cells, EGFR L858R - T790M, read-out: GI50 L858R - T790M/BaF3): 253 nM; GI50 ([2]; Mus musculus, BaF3, 72 h, BaF3 cells, EGFR L858R, read-out: GI50 L858R/BaF3): 471 nM; GI50 ([2]; Mus musculus, BaF3, 72 h, EGFR DEL19 - T790M, read-out: GI50 DEL19 - T790M): 135 nM; GI50 (PC-9; Homo sapiens, PC-9, 72 h): 438 nM
Cc1cc2cc(n1)-c1cnn(C)c1OCCN1CC3CCC(C3)(C1)n1c(nc3ccc(N4CCC(N(C)C)CC4)cc31)NC2=O (single isomer, unassigned) [Example B40A, 5-[4-(dimethylamino)piperidin-1-yl]-15,21-dimethyl-23-oxa-2,9,11,16,20,21,26-heptaazaheptacyclo[24.4.1.1^{1,28}.1^{13,17}.0^{2,10}.0^{3,8}.0^{18,22}]tritriaconta-3,5,7,9,13,15,17(33),18(22),19-nonaen-12-one]										212	164	312	41	194	877	258	950	IC50 (EGFR wild type; IC50 @WT): > 5000 nM; IC50 (EGFR L858R; IC50 @L858R): > 5000 nM; IC50 (EGFR L858R/T790M; IC50 @L858R-T790M): > 5000 nM; IC50 (EGFR Exon19Del; IC50 @Del19, EGFR Exon19Del): > 5000 nM; IC50 (EGFR Exon19Del/T790M; IC50 @Del19-T790M): 430 nM; IC50 (EGFR[T790M/C797S/L858R]; IC50 @T790M- C797S - L858R): > 5000 nM; IC50 ([1]; IC50 @T790M - C797S - Del19, EGFR[T790M/C797S/d746-750]): 123 nM; IC50 (EGFR (d746-750 C797S); IC50 @Del19-C797S): 2480 nM; IC50 (EGFR (C797S L858R); IC50 @L858-C797S): > 5000 nM
Cc1cc2cc(n1)-c1cnn(C)c1OCCN1CC3CCC(C3)(C1)n1c(nc3ccc(N4CC[C@H](N(C)C)C4)cc31)NC2=O (single isomer, unassigned) [Example B41A]	> 5000	> 5000	> 5000	> 5000	3670	> 5000	1300	> 5000	> 5000	302	436	776	39	315	2790	348	2300	
Cc1cc2cc(n1)-c1cnn(C)c1OCCN1CC3CCC(C3)(C1)n1c(nc3ccc(N4CC[C@@H](N(C)C)C4)cc31)NC2=O (single isomer, unassigned) [Example B42A]	> 5000	> 5000	> 5000	> 5000	2480	> 5000	1080	> 5000	> 5000	865	476	602	75	354	1770	468	1590	
Cc1cc2cc(n1)-c1cnn(C)c1OCCN1CC3CCC(C3)(C1)n1c(nc3ccc(N4CC[C@@H](N(C)C)C4)cc31)NC2=O (single isomer, unassigned) [Example B42B]	734	51	9.9	13	10	5.7	6.3	7	15	2	2	3	2	2	5	2	9	
